Data: patent US9540379B2 (priority 2011, dated 2017)

Target: PDE10A (Homo sapiens (Human), UniProt Q9Y233)
Settings: read-out: Inhibition of PDE10A, IC50
Procedure: Inhibition of Recombinant PDE10A (Expressed in Baculovirus/SF21 Cells)
PDE activity was determined in a one step procedure in microtiter plates. The reaction mixture of 100 μl contained 50 mM Tris-HCl/5 mM MgCl2 buffer (pH=7.4, Sigma, Deisenhofen, Germany; Merck, Darmstadt, Germany) 0.1 μM [3H]-cAMP (PerkinElmer, Shelton, USA) and the enzyme. Non-specific enzyme activity was determined without the enzyme.
The reaction was initiated by addition of the substrate solution and was carried out at 37° C. for 30 minutes. Enzymatic activity then was stopped by addition of 25 μl Ysi-SPA-beads (PerkinElmer, Shelton, USA). One h later the mixture was measured in a liquid scintillation counter for microtiter plates (Microbeta Trilux). The Biomek 2000 (Beckman) was used routinely for pipetting of the incubation mixture. […] For determination of IC50 values the Hill-plot, 2-parameter-model, was used.

Chain of PDE10A (Q9Y233 other isoform, or with tags, fused parts or gaps): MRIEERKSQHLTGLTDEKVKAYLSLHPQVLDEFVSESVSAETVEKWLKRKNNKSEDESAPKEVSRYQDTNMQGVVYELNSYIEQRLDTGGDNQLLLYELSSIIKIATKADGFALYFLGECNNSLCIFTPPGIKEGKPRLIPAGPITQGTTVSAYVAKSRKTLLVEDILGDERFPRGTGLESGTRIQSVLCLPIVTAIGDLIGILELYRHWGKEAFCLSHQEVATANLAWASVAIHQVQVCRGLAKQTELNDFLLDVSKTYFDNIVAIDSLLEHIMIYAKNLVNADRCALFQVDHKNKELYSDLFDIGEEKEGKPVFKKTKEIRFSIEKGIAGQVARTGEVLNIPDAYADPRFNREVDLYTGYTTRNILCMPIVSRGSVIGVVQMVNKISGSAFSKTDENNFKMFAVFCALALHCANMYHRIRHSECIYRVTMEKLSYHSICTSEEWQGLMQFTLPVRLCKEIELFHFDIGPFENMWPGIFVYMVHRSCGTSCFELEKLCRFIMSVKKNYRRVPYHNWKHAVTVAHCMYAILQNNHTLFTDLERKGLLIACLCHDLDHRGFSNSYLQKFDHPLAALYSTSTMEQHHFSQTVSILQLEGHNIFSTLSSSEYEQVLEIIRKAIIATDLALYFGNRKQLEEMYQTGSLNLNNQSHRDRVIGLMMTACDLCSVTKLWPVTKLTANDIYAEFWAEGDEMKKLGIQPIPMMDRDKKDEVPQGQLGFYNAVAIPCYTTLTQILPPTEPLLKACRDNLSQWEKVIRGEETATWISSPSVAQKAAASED

SMILES | IC50 [µM]
Cc1nc2ccc(Cl)cc2n2c(-c3ccccc3Cl)nnc12 [Example 1, 8-Chloro-1-(2-chloro-phenyl)-4-methyl-[1,2,4]triazolo[4,3-a]quinoxaline] | 0.045
Cc1nc2ccc(Cl)cc2n2c(-c3ccccc3F)nnc12 [Example 2, 8-Chloro-1-(2-fluoro-phenyl)-4-methyl-[1,2,4]triazolo[4,3-a]quinoxaline] | 0.214
Cc1ncccc1-c1nnc2c(C)nc3ccc(Cl)cc3n12 [Example 5, 8-Chloro-4-methyl-1-(2-methyl-pyridin-3-yl)-[1,2,4]triazolo[4,3-a]quinoxaline] | 0.383
Cc1nc2ccc(Cl)cc2n2c(-c3cc(Cl)ccc3Cl)nnc12 [Example 6, 8-Chloro-1-(2,5-dichloro-phenyl)-4-methyl-[1,2,4]triazolo[4,3-a]quinoxaline] | 0.131
COc1ccc(Cl)c(-c2nnc3c(C)nc4ccc(Cl)cc4n23)c1 [Example 7, 8-Chloro-1-(2-chloro-5-methoxy-phenyl)-4-methyl-[1,2,4]triazolo[4,3-a]quinoxaline] | 0.104
Cc1cnccc1-c1nnc2c(C)nc3ccc(Cl)cc3n12 [Example 9, 8-Chloro-4-methyl-1-(3-methyl-pyridin-4-yl)-[1,2,4]triazolo[4,3-a]quinoxaline] | 0.736
Cc1nc2ccc(Cl)cc2n2c(-c3cc(C(F)(F)F)ccc3Cl)nnc12 [Example 10, 8-Chloro-1-(2-chloro-5-trifluoromethyl-phenyl)-4-methyl-[1,2,4]triazolo[4,3-a]quinoxaline] | > 1
CCCCOc1ccc(F)c(-c2nnc3c(C)nc4ccc(Cl)cc4n23)c1 [Example 11, 1-(5-Butoxy-2-fluoro-phenyl)-8-chloro-4-methyl-[1,2,4]triazolo[4,3-a]quinoxaline] | > 1
CCCCOc1ccc(Cl)c(-c2nnc3c(C)nc4ccc(Cl)cc4n23)c1 [Example 12, 1-(5-Butoxy-2-chloro-phenyl)-8-chloro-4-methyl-[1,2,4]triazolo[4,3-a]quinoxaline] | > 1
CCCCCCOc1ccc(C)c(-c2nnc3c(C)nc4ccc(Cl)cc4n23)c1 [Example 15, 8-Chloro-1-(5-hexyloxy-2-methyl-phenyl)-4-methyl-[1,2,4]triazolo[4,3-a]quinoxaline] | > 1
Cc1nc2ccc(Cl)cc2n2c(-c3cc(OCCCC(F)(F)F)ccc3Cl)nnc12 [Example 16, 8-Chloro-1-[2-chloro-5-(4,4,4-trifluoro-butoxy)-phenyl]-4-methyl-[1,2,4]triazolo[4,3-a]quinoxaline] | > 1
Cc1nc2ccc(Cl)cc2n2c(-c3cc(OCCCCF)ccc3F)nnc12 [Example 17, 8-Chloro-1-[2-fluoro-5-(4-fluoro-butoxy)-phenyl]-4-methyl-[1,2,4]triazolo[4,3-a]quinoxaline] | > 1
Cc1nc2cc(Cl)ccc2n2c(-c3c(F)cccc3F)nnc12 [Example 18, 7-Chloro-1-(2,6-difluoro-phenyl)-4-methyl-[1,2,4]triazolo[4,3-a]quinoxaline] | 0.103
Cc1nc2cc(Cl)ccc2n2c(-c3cc(Cl)ccc3Cl)nnc12 [Example 19, 7-Chloro-1-(2,5-dichloro-phenyl)-4-methyl-[1,2,4]triazolo[4,3-a]quinoxaline] | > 1
Cc1nc2cc(Cl)ccc2n2c(-c3cc(C(F)(F)F)ccc3Cl)nnc12 [Example 21, 7-Chloro-1-(2-chloro-5-trifluoromethyl-phenyl)-4-methyl-[1,2,4]triazolo[4,3-a]quinoxaline] | > 1
CCCCOc1ccc(F)c(-c2nnc3c(C)nc4cc(Cl)ccc4n23)c1 [Example 22, 1-(5-Butoxy-2-fluoro-phenyl)-7-chloro-4-methyl-[1,2,4]triazolo[4,3-a]quinoxaline] | > 1

SMILES | IC50 [µM]
CCCCOc1ccc(Cl)c(-c2nnc3c(C)nc4cc(Cl)ccc4n23)c1 [Example 23, 1-(5-Butoxy-2-chloro-phenyl)-7-chloro-4-methyl-[1,2,4]triazolo[4,3-a]quinoxaline] | > 1
CCCCCCOc1ccc(F)c(-c2nnc3c(C)nc4cc(Cl)ccc4n23)c1 [Example 24, 7-Chloro-1-(2-fluoro-5-hexyloxy-phenyl)-4-methyl-[1,2,4]triazolo[4,3-a]quinoxaline] | > 1
CCCCOc1ccc(C)c(-c2nnc3c(C)nc4cc(Cl)ccc4n23)c1 [Example 25, 1-(5-Butoxy-2-methyl-phenyl)-7-chloro-4-methyl-[1,2,4]triazolo[4,3-a]quinoxaline] | > 1
CCCCCCOc1ccc(C)c(-c2nnc3c(C)nc4cc(Cl)ccc4n23)c1 [Example 26, 7-Chloro-1-(5-hexyloxy-2-methyl-phenyl)-4-methyl-[1,2,4]triazolo[4,3-a]quinoxaline] | > 1
Cc1nc2ccccc2n2c(-c3ccccc3F)nnc12 [Example 30, 1-(2-Fluoro-phenyl)-4-methyl-[1,2,4]triazolo[4,3-a]quinoxaline] | 0.346
Cc1nc2ccccc2n2c(-c3cc(Cl)ccc3Cl)nnc12 [Example 34, 1-(2,5-Dichloro-phenyl)-4-methyl-[1,2,4]triazolo[4,3-a]quinoxaline] | 0.33
Cc1nc2ccccc2n2c(-c3cccc(Cl)c3Cl)nnc12 [Example 35, 1-(2,3-Dichloro-phenyl)-4-methyl-[1,2,4]triazolo[4,3-a]quinoxaline] | 0.36
Cc1nc2ccccc2n2c(-c3cc(OCC4CCC4)ccc3Cl)nnc12 [Example 47, 1-(2-Chloro-5-cyclobutylmethoxy-phenyl)-4-methyl-[1,2,4]triazolo[4,3-a]quinoxaline] | > 1
Cc1nc2ccccc2n2c(-c3cc(OCC4CC4)ccc3Cl)nnc12 [Example 48, 1-(2-Chloro-5-cyclopropylmethoxy-phenyl)-4-methyl-[1,2,4]triazolo[4,3-a]quinoxaline] | > 1
Cc1nc2ccccc2n2c(-c3cc(OCCc4ccccc4)ccc3Cl)nnc12 [Example 49, 1-(2-Chloro-5-phenethyloxy-phenyl)-4-methyl-[1,2,4]triazolo[4,3-a]quinoxaline] | > 1
Cc1nc2ccccc2n2c(-c3cc(O)ccc3Cl)nnc12 [Example 50, 4-Chloro-3-(4-methyl-[1,2,4]triazolo[4,3-a]quinoxalin-1-yl)-phenol] | 0.062
Cc1nc2ccc(F)cc2n2c(-c3ccccc3F)nnc12 [Example 52, 8-Fluoro-1-(2-fluoro-phenyl)-4-methyl-[1,2,4]triazolo[4,3-a]quinoxaline] | 0.553
Cc1ncccc1-c1nnc2c(C)nc3ccc(F)cc3n12 [Example 53, 8-Fluoro-4-methyl-1-(2-methyl-pyridin-3-yl)-[1,2,4]triazolo[4,3-a]quinoxaline] | 1
COc1ccc(Cl)c(-c2nnc3c(C)nc4ccc(F)cc4n23)c1 [Example 56, 1-(2-Chloro-5-methoxy-phenyl)-8-fluoro-4-methyl-[1,2,4]triazolo[4,3-a]quinoxaline] | 0.279
Cc1nc2ccc(F)cc2n2c(-c3cc(C(F)(F)F)ccc3Cl)nnc12 [Example 57, 1-(2-Chloro-5-trifluoromethyl-phenyl)-8-fluoro-4-methyl-[1,2,4]triazolo[4,3-a]quinoxaline] | > 1
CCCCOc1ccc(F)c(-c2nnc3c(C)nc4ccc(F)cc4n23)c1 [Example 58, 1-(5-Butoxy-2-fluoro-phenyl)-8-fluoro-4-methyl-[1,2,4]triazolo[4,3-a]quinoxaline] | > 1
